Reference: patent publication US9770452B2, “Quinoxaline derivatives as GPR6 modulators” (Takeda Pharmaceutical Company Limited, priority 2012, dated 2017)

Key:
GPR6 receptor = target: T1, GPR6 receptor (Homo sapiens, UniProt P46095); test: Inhibition of cAMP Activity of GPR6 In Vitro Assay (CHO-K1 cells, HTRF cAMP); type: cell-based; details: compounds of Compound Table 1; inhibition of constitutive cAMP activity of GPR6 expressed in CHO-K1 cells; approximate IC50; read-out: IC50
T1 construct: expressed in transfected cells
T1 sequence (P46095 whole entry): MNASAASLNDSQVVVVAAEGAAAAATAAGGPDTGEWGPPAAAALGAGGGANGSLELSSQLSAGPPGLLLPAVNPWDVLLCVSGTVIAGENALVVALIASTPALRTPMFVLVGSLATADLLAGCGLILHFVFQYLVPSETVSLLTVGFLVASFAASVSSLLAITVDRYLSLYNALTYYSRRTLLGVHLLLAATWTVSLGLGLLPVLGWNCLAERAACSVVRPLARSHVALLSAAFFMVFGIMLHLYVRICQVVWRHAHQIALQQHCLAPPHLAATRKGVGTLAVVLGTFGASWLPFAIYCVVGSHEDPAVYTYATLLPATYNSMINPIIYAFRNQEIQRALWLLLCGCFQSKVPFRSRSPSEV
Procedure, shortened: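 CHO-K1 cells with doxycycline-induced (1 μg/ml, 20 h) GPR6 treated with compounds 45 min at 37 °C in Ringer's buffer (pH 7.4) with 0.5% fatty acid free BSA. Constitutive cAMP measured by Lance HTRF Ultra cAMP; IC50 from four-parameter logistic fit.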

[1] = system: haloperidol-induced catalepsy; test: Haloperidol-Induced Catalepsy, in vivo rodent Parkinson's disease model (rats); details: rat, 10 mpk sc
Text: (§1) Haloperidol-Induced Catalepsy—In Vivo Rodent Parkinson's Disease Model
The motor symptoms of Parkinson's disease include akinesia, bradykinesia, rigidity, tremor and postural abnormalities and are associated with the loss of nigral dopaminergic cells and a decline in striatal dopamine levels. Administration of haloperidol to rodents leads to a transient parkinsonian-like state that is reversed by the administration of L-Dopa (Duty, S.; Jenner, P. Br. J. Pharmacol. (2011), 164, 1357-1391) and other drugs that have been clinically validated for the treatment of Parkinson's disease. […]
Male Sprague-Dawley rats (Charles River, Calco, Italy) weighing 175-200 g are used. […] The time span from placement of the paws until the first complete removal of one paw (descent latency) was measured maximally for 120 sec for rats. For mice, the front paws of a mouse was placed on a horizontal metal bar raised 2″ above a Plexiglas platform and time was recorded for up to 30 seconds per trial. […]
Catalepsy was measured 30 min, 120 min, and/or 240 min after dosing the subjects a 0.3 mg/kg i.p. dose of haloperidol along with the GPR6 modulator test compound. Test compound plasma and brain levels were determined by collected tissue samples at the end of the experiment, which was either at the 120 or 240 min time point. […]

[2] = system: haloperidol-induced catalepsy; test: Haloperidol-Induced Catalepsy, in vivo rodent Parkinson's disease model (mice); details: mouse; for % reversal 30 min: 30 min after dosing with haloperidol; for % reversal 120 min: 120 min after dosing with haloperidol
Text: as §1
The motor symptoms of Parkinson's disease include akinesia, bradykinesia, rigidity, tremor and postural abnormalities and are associated with the loss of nigral dopaminergic cells and a decline in striatal dopamine levels. Administration of haloperidol to rodents leads to a transient parkinsonian-like state that is reversed by the administration of L-Dopa (Duty, S.; Jenner, P. Br. J. Pharmacol. (2011), 164, 1357-1391) and other drugs that have been clinically validated for the treatment of Parkinson's disease. Haloperidol antagonizes dopamine D2 and, to a lesser extent, D1 receptors in medium spiny neurons that comprise the indirect and direct pathways of the motor circuit respectively. The resultant block of striatal dopamine transmission results in abnormal downstream firing within the basal ganglia circuits that is manifest as symptoms of muscle rigidity and catalepsy. Catalepsy has been postulated to reflect the clinical features of Parkinson's disease, whereby patients experience an inability of to initiate movements.
Male Sprague-Dawley rats (Charles River, Calco, Italy) weighing 175-200 g are used. Alternatively, male C57Bl6 mice weighing 25-35 g were used. The cataleptic state was induced by the subcutaneous administration of the dopamine receptor antagonist haloperidol (0.3 mg/kg, sc), 90 min before testing the animals on the vertical grid test. For this test, the rats or mice were placed on the wire mesh cover of a 25 cm×43 cm plexiglass cage placed at an angle of about 70 degrees with the bench table. The subject was placed on the grid with all four legs abducted and extended (“frog posture”). The use of such an unnatural posture is essential for the specificity of this test for catalepsy. The time span from placement of the paws until the first complete removal of one paw (descent latency) was measured maximally for 120 sec for rats. For mice, the front paws of a mouse was placed on a horizontal metal bar raised 2″ above a Plexiglas platform and time was recorded for up to 30 seconds per trial. The test ended when the animal's front paws returned to the platform or after 30 seconds. The test was repeated three times and the average of the three trials was reported as the intensity index of catalepsy.
Catalepsy was measured 30 min, 120 min, and/or 240 min after dosing the subjects a 0.3 mg/kg i.p. dose of haloperidol along with the GPR6 modulator test compound. Test compound plasma and brain levels were determined by collected tissue samples at the end of the experiment, which was either at the 120 or 240 min time point. A representative number of compounds of the invention were administered in a dose range from 0.1 to 100 mg/kg i.p, sc or po in conjunction with haloperidol. The A2a antagonist KW6002 (istradefylline) was dosed at 0.6 mg/kg i.p. as a positive control. The compounds of the invention produced reversal of haloperidol-induced catalepsy. The results of a representative no. of compounds of this invention in this assay are disclosed in the table below.

In the case of “3-(4-(2,4-difluorobenzyl)piperidin-1-yl)-2-(pyridin-3-ylamino)quinoxaline-6-carbonitrile, 2,2,2-trifluoroacetic acid salt [Cpd 415]”, the IC50 (GPR6 receptor) is reported as 0.064 µM, the “% reversal 30 min” value ([1]; 30 min after dosing with haloperidol) is reported as 36.9% and the “% reversal 120 min” value ([1]; 120 min after dosing with haloperidol) is reported as 25.1%.

With `Clc1cccc(Cl)c1CN1CCN(c2nc3ccccc3nc2NC2CC2)CC1.O=C(O)C(F)(F)F` [Cpd 50, N-cyclopropyl-3-(4-(2,6-dichlorobenzyl)piperazin-1-yl)quinoxalin-2-amine, 2,2,2-trifluoroacetic acid salt] the “% reversal 30 min” value ([2]; 30 mpk ip) was 40.4% and the “% reversal 120 min” value ([2]; 30 mpk ip) was 29.6%.

With `Clc1ccc(Cl)c(CN2CCN(c3nc4ccccc4nc3NC3CC3)CC2)c1.O=C(O)C(F)(F)F` [Cpd 33, N-cyclopropyl-3-(4-(2,5-dichlorobenzyl)piperazin-1-yl)quinoxalin-2-amine, 2,2,2-trifluoroacetic acid salt] the IC50 (GPR6 receptor) was 2.16 µM, the “% reversal 30 min” value ([2]; 30 mpk ip) was 48.1% and the “% reversal 120 min” value ([2]; 30 mpk ip) was 41.4%.

In the case of `Clc1cccc(CN2CCN(c3nc4ccccc4nc3Nc3cccnc3)CC2)c1.O=C(O)C(F)(F)F` [Cpd 53, 3-(4-(3-chlorobenzyl)piperazin-1-yl)-N-(pyridin-3-yl)quinoxalin-2-amine, 2,2,2-trifluoroacetic acid salt], the IC50 (GPR6 receptor) is reported as 1.2 µM, the “% reversal 30 min” value ([2]; 30 mpk ip) is reported as 13.6% and the “% reversal 120 min” value ([2]; 30 mpk ip) is reported as 15.4%.

With `N#Cc1ccc2nc(NC3CC3)c(N3CCN(Cc4cc(Cl)ccc4Cl)CC3)nc2c1` [Cpd 59, 2-(cyclopropylamino)-3-(4-(2,5-dichlorobenzyl)piperazin-1-yl) quinoxaline-6-carbonitrile] the IC50 (GPR6 receptor) was 0.25 µM, the “% reversal 30 min” value ([2]; 10 mpk ip) was 42% and the “% reversal 120 min” value ([2]; 10 mpk ip) was 18.8%. For the same compound, the “% reversal 30 min” value ([2]; 30 mpk ip) was 27.4% and the “% reversal 120 min” value ([2]; 30 mpk ip) was 15.7%.
